Values joined by “and” are separate entries in the source; they are usually repeats but may differ in a detail not shown here. Identical values can stand only once. Like-named read-outs stand apart in the source and are kept apart here.
Tested on: P-388 murine leukemia
Experiment: Activity against P-388 murine leukemia (P-388 screen, survival of tumor-implanted mice)
Format: in vivo, CDF₁ female mice
Conditions: for minimal effective dose: Mus musculus, P388, ip; for activity against P-388 leukemia (in words): in vivo P-388 leukemia, compared to concurrently run mitomycin C controls
Protocol: The Table contains the results of laboratory tests with CDF₁ female mice implanted intraperitoneally with a tumor inoculum of 10⁶ ascites cells of P-388 murine leukemia and treated with various doses of either a test compound of this invention, or with mitomycin C. The compounds were administered by intraperitoneal injection. Groups of six mice were used for each dosage amount and they were treated with a single dose of the compound on the day of inoculation. A group of ten saline treated control mice was included in each series of experiments. The mitomycin C treated groups were included as a positive control. A 30-day protocol was employed with the mean survival time in days being determined for each group of mice and the number of survivors at the end of the 30-day period being noted.
The results were determined in terms of % T/C which is the ration of the mean survival time of the treated group to the mean survival time of the saline treated control group times 100. The saline treated control animals usually died within nine days. The "maximum effect" in the following Table is expressed as % T/C and the dose giving that effect is given in parentheses. The values in brackets are the values obtained with mitomycin C as the positive control in the same experiment. Thus, a measure of the relative activity of the present substances to mitomycin C can be estimated. A minimum effect in terms of % T/C was considered to be 125. The minimum effective dose (MED) reported in the following Table is that dose given a % T/C of approximately 125 or greater.

[1] = read-out: MED (minimum effective dose, %T/C≧125), P-388 leukemia ip, single ip dose on the day of inoculation, mitomycin C value in brackets from the same experiment

CO[C@@]12[C@H](COC(N)=O)C3=C(C(O)=C(C)C(=NNC(=O)OCc4ccccc4)C3=O)N1C[C@@H]1N[C@@H]12 [VII, Phenylmethyl [1aS-(1aα, 8β, 8aα, 8bα)]-[8-[[(aminocarbonyl)-oxy]methyl]-1,1a, 2,8,8a, 8b-hexahydro-4-hydroxy-8a-methoxy-5-methyl-7-oxoazirino[2′, 3′; 3, 4]pyrrolo[1,2-a]indol-6(7H)-ylidene] hydrazinecarboxylate]
minimal effective dose [1]: 1.6 mg/kg
activity against P-388 leukemia (in words): highest efficacy

CO[C@@]12[C@H](COC(N)=O)C3=C(C(O)=C(C)C(=NNC(C)=O)C3=O)N1C[C@@H]1N[C@@H]12 [I, Acetic acid, [1aS-(1aα, 8β, 8aα, 8bα)]-[8-[[(aminocarbonyl)oxy]methyl]-1,1a,2,8,8a,8b-hexahydro-4-hydroxy-8a-methoxy-5-methyl-7-oxoazirino [2′,3′;3,4]pyrrolo[1,2-a]indol-6(7H)-ylidene]hydrazide]
minimal effective dose [1]: 1.6 mg/kg
activity against P-388 leukemia (in words): pronounced activity

CO[C@@]12[C@H](COC(N)=O)C3=C(C(=O)C(C)=C(N)C3=O)N1C[C@@H]1N[C@@H]12 [mitomycin C, 7-amino-9α-methoxymitosane, reference compound]
minimal effective dose (P-388 leukemia ip, single ip dose on the day of inoculation, mitomycin C value in brackets from the same experiment, read-out: MED (minimum effective dose, %T/C≧125)): 1.6 mg/kg
MED (minimum effective dose, %T/C≧125) (P-388 leukemia ip, single ip dose on the day of inoculation, mitomycin C value in brackets from the same experiment): 1.6[1.6] mg/kg per dose and 0.8[0.8] mg/kg per dose

CCOC(=O)NN=C1C(=O)C2=C(C(O)=C1C)N1C[C@@H]3N[C@@H]3[C@]1(OC)[C@@H]2COC(N)=O [V, Ethyl [1aS-(1aα, 8β, 8aα, 8bα)]-[8-[[(aminocarbonyl)oxy]methyl]-1,1a,2,8,8a,8b-hexahydro-4-hydroxy-8a-methoxy-5-methyl-7-oxoazirino[2′,3′,3,4]pyrrolo[1,2-a]indol-6(7H)-ylidene]hydrazinecarboxylate]
minimal effective dose [1]: 0.8 mg/kg
activity against P-388 leukemia (in words): highest efficacy

CO[C@@]12[C@H](COC(N)=O)C3=C(C(O)=C(C)C(=NNC(=O)OC(C)(C)C)C3=O)N1C[C@@H]1N[C@@H]12 [VI]
minimal effective dose [1]: 0.8 mg/kg

CO[C@@]12[C@H](COC(N)=O)C3=C(C(O)=C(C)C(=NNC(=O)c4cccnc4)C3=O)N1C[C@@H]1N[C@@H]12 [III, 3-Pyridinecarboxylic acid, [1aS-(1aα, 8β, 8aα, 8bα)]-[8-[[(aminocarbonyl)-oxy]methyl]-1,1a,2,8,8a,8b-hexahydro-4-hydroxy-8a-methoxy-5-methyl-7-oxoazirino[2′,3′;3,4,]pyrrolo[1,2-a]indol-6(7H)-ylidene]hydrazide]
minimal effective dose [1]: 12.8 mg/kg
activity against P-388 leukemia (in words): moderately active

CO[C@@]12[C@H](COC(N)=O)C3=C(C(O)=C(C)C(=NNC(=O)c4ccccc4)C3=O)N1C[C@@H]1N[C@@H]12 [II, Benzoic acid, [1aS-(1aα, 8β, 8aα, 8bα)]-[8-[[(aminocarbonyl)-oxy]methyl]-1,1a,2,8,8a,8b-hexahydro-4-hydroxy-8a-methoxy-5-methyl-7-oxoazirino[2′,3′,4]pyrrolo[1,2-a]indol-6(7H)-ylidene]hydrazide]
minimal effective dose [1]: 0.8 mg/kg
activity against P-388 leukemia (in words): moderately active

CO[C@@]12[C@H](COC(N)=O)C3=C(C(O)=C(C)C(=NNC(=O)OCC4c5ccccc5-c5ccccc54)C3=O)N1C[C@@H]1N[C@@H]12 [VIII, 9′-Fluorenylmethyl[1aS-(1aα, 8β, 8aα, 8bα)]-[8-[[(aminocarbonyl)oxy]-methyl]-1,1a, 2,8,8a, 8b-hexahydro-4-hydroxy-8a-methoxy-5-methyl-7-oxoazirino[2′, 3′;3,4,]pyrrolo[1,2-a]indol-6(7H)-ylidene]hydrazine carboxylate]
minimal effective dose [1]: 0.8 mg/kg
activity against P-388 leukemia (in words): highest efficacy

CO[C@@]12[C@H](COC(N)=O)C3=C(C(O)=C(C)C(=NNC(=O)c4cccs4)C3=O)N1C[C@@H]1N[C@@H]12 [IV]
minimal effective dose [1]: 0.8 mg/kg
activity against P-388 leukemia (in words): moderately active
